The subject of test [1] is human colorectal cancer cell lines (HT-29 and HCT-116). In words: Colony-forming ability, anticancer drug in combination with calcium lactate (6-well plates). It counts as cell-based. The conditions noted are these: vs control. The procedure:
Human colorectal cancer cell lines (HT-29 and HCT-116) with the cell number of 1×10^3 cells were seeded into an RPMI1640 medium in each of 6-well plates. After one day, the medium was replaced with fresh medium and the cells were treated with 2.5 mM calcium lactate or 1 μM, 2.5 μM, and 5 μM Imatinib alone or treated with various concentrations (1 μM, 2.5 μM, and 5 μM) of Imatinib in combination with 2.5 mM calcium lactate. Then, the colony-forming abilities of the cells were compared. In this case, human colorectal cancer cell lines (HT-29 and HCT-116) untreated with any drug were used as control groups (FIGS. 38a, 38b, 39a and 39b).
Human colorectal cancer cell lines (HT-29 and HCT-116) with the cell number of 1×10^3 cells were seeded into an RPMI1640 medium in each of 6-well plates. After one day, the medium was replaced with fresh medium and the cells were treated with 2.5 mM calcium lactate or 2.5 μM, 5 μM, and 10 μM 5-FU alone or treated with various concentrations (2.5 μM, 5 μM, and 10 μM) of 5-FU in combination with 2.5 mM calcium lactate. Then, the colony-forming abilities of the cells were compared. In this case, human colorectal cancer cell lines (HT-29 and HCT-116) untreated with any drug were used as control groups (FIGS. 40a, 40 b, 41a and 41b).

Test [2] deals with human colorectal cancer cell line HCT-116. The following applies: 5 mM CA individually, 10 days.
In test [3] the test system is human lung cancer cell line (A549). The experiment in a line: Colony-forming ability, anticancer drug in combination with calcium lactate (6-well plates). It counts as cell-based. The conditions noted are these: vs control. The method, then: Human breast cancer cell line (MCF-7) and a human lung cancer cell line (A549) with the cell number of 1×10^3 cells were seeded into an RPMI1640 medium in each of 6-well plates. […]. Then, the colony-forming abilities of the cells were compared. In this case, a human breast cancer cell line (MCF-7) and a human lung cancer cell line (A549) untreated with any drug were used as control groups (FIGS. 42a, 42b, 43a and 43b).
Human lung cancer cell line (A549) with the cell number of 1×10^3 cells were seeded into an RPMI1640 medium in each of 6-well plates. […]. Then, the colony-forming abilities of the cells were compared. In this case, a human lung cancer cell line (A549) untreated with any drug was used as a control group (FIGS. 44a and 44b).
Human lung cancer cell line (A549) with the cell number of 1×10^3 cells were seeded into an RPMI1640 medium in each of 6-well plates. […]. Then, the colony-forming abilities of the cells were compared. In this case, a human lung cancer cell line (A549) untreated with any drug was used as a control group (FIGS. 47a and 47b).
Human lung cancer cell line (A549) with the cell number of 1×10^3 cells were seeded into an RPMI1640 medium in each of 6-well plates. […]. Then, the colony-forming abilities of the cells were compared. In this case, a human lung cancer cell line (A549) untreated with any drug was used as a control group (FIGS. 49a and 49b).
Human lung cancer cell line (A549) with the cell number of 1×10^3 cells were seeded into an RPMI1640 medium in each of 6-well plates. […]. Then, the colony-forming abilities of the cells were compared. In this case, a human lung cancer cell line (A549) untreated with any drug was used as a control group (FIGS. 50a and 50b).
Human lung cancer cell line (A549) with the cell number of 1×10^3 cells were seeded into an RPMI1640 medium in each of 6-well plates. […]. Then, the colony-forming abilities of the cells were compared. In this case, a human lung cancer cell line (A549) untreated with any drug was used as a control group (FIGS. 51a and 51b).

Test [4] concerns human kidney cancer cell line (Caki-1). The description is as above. The following applies: 0.3, 0.5, 1 nM Everolimus alone, vs control. It counts as cell-based. The method, then:
Human kidney cancer cell line (Caki-1) with the cell number of 1×10^3 cells were seeded into an RPMI1640 medium in each of 6-well plates. After one day, the medium was replaced with fresh medium and the cells were treated with 0.3 nM, 0.5 nM, and 1 nM Everolimus alone or treated with various concentrations (0.3 nM, 0.5 nM, and 1 nM) of Everolimus in combination with 2.5 mM calcium lactate. Then, the colony-forming abilities of the cells were compared. In this case, a human kidney cancer cell line (Caki-1) untreated with any drug was used as a control group (FIGS. 53a and 53b).

In test [5] the test system is human colorectal cancer cell line (HT-29). The test is described as above. It counts as cell-based. The following applies: vs control. The procedure:
Human colorectal cancer cell line (HT-29) with the cell number of 1×10^3 cells were seeded into an RPMI1640 medium in each of 6-well plates. […]. Then, the colony-forming abilities of the cells were compared. In this case, a human colorectal cancer cell line (HT-29) untreated with any drug was used as a control group (FIGS. 46a and 46b).
Human colorectal cancer cell line (HT-29) with the cell number of 1×10^3 cells were seeded into an RPMI1640 medium in each of 6-well plates. […]. Then, the colony-forming abilities of the cells were compared. In this case, a human colorectal cancer cell line (HT-29) untreated with any drug was used as a control group (FIGS. 48a and 48b).
Human colorectal cancer cell line (HT-29) with the cell number of 1×10^3 cells were seeded into an RPMI1640 medium in each of 6-well plates. […]. Then, the colony-forming abilities of the cells were compared. In this case, a human colorectal cancer cell line (HT-29) untreated with any drug was used as a control group (FIG. 55).

The test system of test [6] is human breast cancer cell line (MCF-7). Described as above. The conditions noted are these: vs control. It counts as cell-based. The method, then: Human breast cancer cell line (MCF-7) and a human lung cancer cell line (A549) with the cell number of 1×10^3 cells were seeded into an RPMI1640 medium in each of 6-well plates. […] Then, the colony-forming abilities of the cells were compared. In this case, a human breast cancer cell line (MCF-7) and a human lung cancer cell line (A549) untreated with any drug were used as control groups (FIGS. 42a, 42b, 43a and 43b).
Human breast cancer cell line (MCF-7) with the cell number of 1×10^3 cells were seeded into an RPMI1640 medium in each of 6-well plates. After one day, the medium was replaced with fresh medium and the cells were treated with 2.5 mM calcium lactate or 2 μM, 4 μM, and 8 μM Lapatinib alone or treated with various concentrations (2 μM, 4 μM, and 8 μM) of Lapatinib in combination with 2.5 mM calcium lactate. Then, the colony-forming abilities of the cells were compared. In this case, a human breast cancer cell line (MCF-7) untreated with any drug was used as a control group (FIGS. 52a and 52b).

Test [7] deals with human liver cancer cell line (Hep3B). Described as above. It counts as cell-based. The conditions noted are these: 1, 2.5, 5 μM Sorafenib alone, vs control. The procedure:
Human liver cancer cell line (Hep3B) with the cell number of 1×10^3 cells were seeded into an RPMI1640 medium in each of 6-well plates. After one day, the medium was replaced with fresh medium and the cells were treated with 2.5 mM calcium lactate or 1 μM, 2.5 μM, and 5 μM Sorafenib alone or treated with various concentrations (1 μM, 2.5 μM, and 5 μM) of Sorafenib in combination with 2.5 mM calcium lactate. Then, the colony-forming abilities of the cells were compared. In this case, a human liver cancer cell line (Hep3B) untreated with any drug was used as a control group (FIGS. 45a and 45b).

For test [8], the system named is human vascular endothelial cell (HUVEC). The experiment in a line: Tube formation of HUVEC in culture supernatants of treated cancer cell lines. Type of test: cell-based. The conditions noted are these: HUVEC treated with Sulforaphane (comparison group). The source says: A human vascular endothelial cell (HUVEC) was inoculated into each of the obtained culture supernatant and cultured to analyze a conformational change of cells (FIG. 17). In this case, an HUVEC cultured using the culture medium of a cancer cell line cultured without treating with calcium lactate was used as a control group, and an HUVEC cultured with the treatment with Sulforaphane, which is a growth inhibitor of an HUVEC, was used as a comparison group.

A further test deals with cancer cell. In words: Dissociation of metal lactate salts to lactate in a cancer cell. It counts as cell-based.
The mark [9] stands for this setting: 0.63, 1.3, 2.5 nM Paclitaxel alone.

For the compound `O=c1[nH]cc(F)c(=O)[nH]1` [5-FU], the colony-forming ability result in [1] (2.5, 5, 10 μM 5-FU alone) is on record as “suppressed”.

`O=C(O)C=Cc1ccccc1` [CA, cinnamic acid, reference compound]: the survival rate entry in [2] is “about 60%”. On to `N.N.O=C([O-])C1(C(=O)[O-])CCC1.[Pt+2]` [Carboplatin], for which the colony-forming ability result in test [3] (2.5, 5, 10 μM Carboplatin alone) is given as “suppressed”. Turning to `CC(=O)O[C@@]12CO[C@@H]1C[C@H](O)[C@@]1(C)C(=O)[C@H](O)C3=C(C)[C@@H](OC(=O)[C@H](O)[C@@H](NC(=O)OC(C)(C)C)c4ccccc4)C[C@@](O)([C@@H](OC(=O)c4ccccc4)[C@H]21)C3(C)C` [Docetaxel], the colony-forming ability entry in test [3] (0.6, 1.3, 2.5 nM Docetaxel alone) is on record as “suppressed”. `C#Cc1cccc(Nc2ncnc3cc(OCCOC)c(OCCOC)cc23)c1` [Erlotinib]: the colony-forming ability entry in [3] (0.5, 1, 2 μM Erlotinib alone) is listed as “suppressed”. For the compound `CO[C@H]1C[C@@H]2CC[C@@H](C)[C@@](O)(O2)C(=O)C(=O)N2CCCC[C@H]2C(=O)O[C@H]([C@H](C)C[C@@H]2CC[C@@H](OCCO)[C@H](OC)C2)CC(=O)[C@H](C)/C=C(\C)[C@@H](O)[C@@H](OC)C(=O)[C@H](C)C[C@H](C)/C=C/C=C/C=C/1C` [Everolimus, reference compound], the colony-forming ability entry in test [4] is listed as “suppressed”. With `COc1cc2ncnc(Nc3ccc(F)c(Cl)c3)c2cc1OCCCN1CCOCC1` [Gefitinib], the colony-forming ability result in [3] (1.3, 2.5, 5 μM Gefitinib alone) is “suppressed”. `Cc1ccc(NC(=O)c2ccc(CN3CCN(C)CC3)cc2)cc1Nc1nccc(-c2cccnc2)n1` [Imatinib]: the colony-forming ability entry in test [1] (1, 2.5, 5 μM Imatinib alone) was “suppressed”.

Regarding `CCc1c2c(nc3ccc(OC(=O)N4CCC(N5CCCCC5)CC4)cc13)-c1cc3c(c(=O)n1C2)COC(=O)[C@]3(O)CC` [Irinotecan], the colony-forming ability entry in test [5] (0.5, 1, 2 μM Irinotecan alone) is recorded as “suppressed”.

With `CS(=O)(=O)CCNCc1ccc(-c2ccc3ncnc(Nc4ccc(OCc5cccc(F)c5)c(Cl)c4)c3c2)o1` [Lapatinib], in test [6] (2, 4, 8 μM Lapatinib alone), the colony-forming ability result is reported as “suppressed”.

As for `CN(Cc1cnc2nc(N)nc(N)c2n1)c1ccc(C(=O)N[C@@H](CCC(=O)O)C(=O)O)cc1` [Methotrexate], the colony-forming ability entry in [3] (5, 10, 20 nM Methotrexate alone) is “suppressed”. As for `O=C1[O][Pt]2([NH][C@@H]3CCCC[C@H]3[NH]2)[O]C1=O` [Oxaliplatin], in [5] (1.3, 2.5, 5 μM Oxaliplatin alone), the colony-forming ability entry is reported as “suppressed”.

For `CC(=O)O[C@H]1C(=O)[C@@]2(C)[C@H]([C@H](OC(=O)c3ccccc3)[C@]3(O)C[C@H](OC(=O)[C@H](O)[C@@H](NC(=O)c4ccccc4)c4ccccc4)C(C)=C1C3(C)C)[C@]1(OC(C)=O)CO[C@@H]1C[C@@H]2O` [Paclitaxel], the colony-forming ability result in test [3] (setting [9]) and in [6] (setting [9]) was “suppressed” throughout. As for `CNC(=O)c1cc(Oc2ccc(NC(=O)Nc3ccc(Cl)c(C(F)(F)F)c3)cc2)ccn1` [Sorafenib, reference compound], in test [7], the colony-forming ability result was “suppressed”.

For the compound `C[S+]([O-])CCCCN=C=S` (stereo not drawn) [Sulforaphane, reference compound], in [8], the “tube-forming ability of HUVEC” value is “reduced tube-forming ability”. Take `CC(O)C(=O)[O-].[K+]` (stereo not drawn) [potassium lactate]: in the test with cancer cell, the “dissociation to lactate in a cancer cell” value is “can be dissociated to lactate”. On the same count and under the same terms, the result for `CC(O)C(=O)[O-].[Na+]` (stereo not drawn) [sodium lactate] reads “can be dissociated to lactate”.

For the origin of these results see patent publication US11413261B2, “Pharmaceutical composition for treating cancer comprising lactate metal salt” (METIMEDI PHARMACEUTICALS CO., LTD, priority 2014, dated 2022).
